Measurements from the NIST ThermoML archive (doi:10.1016/j.jct.2009.07.018).
± gives the expanded uncertainty stated by the source.

Key:
[1] = Maximal bubble pressure
[2] = xn = mol fraction of the nth substance listed; details: Maximal bubble pressure

CCCCCCCCCC [decane]
[1]
Details | surface tension liquid-gas [mN/m]
293.15 K | 23.83 ± 0.26
303.15 K | 22.91 ± 0.26
313.15 K | 21.91 ± 0.25
323.15 K | 21.07 ± 0.25
333.15 K | 20.15 ± 0.25
343.15 K | 19.23 ± 0.24

CCCCCCC [heptane]
[1]
Details | surface tension liquid-gas [mN/m]
283.15 K | 21.11 ± 0.25
293.15 K | 20.12 ± 0.25
303.15 K | 19.13 ± 0.24
313.15 K | 18.11 ± 0.24
323.15 K | 17.15 ± 0.23

CCCCC [pentane]
[1]
Details | surface tension liquid-gas [mN/m]
293.15 K | 15.94 ± 0.23
298.15 K | 15.3 ± 0.22
305.15 K | 14.36 ± 0.22
318.15 K | 12.6 ± 0.21
323.15 K | 11.95 ± 0.21

CCCCC [pentane] + CCCCCCC
surface tension liquid-gas [mN/m], [2]
Details | x1 = 0.165 | x1 = 0.308 | x1 = 0.432 | x1 = 0.542 | x1 = 0.64 | x1 = 0.727 | x1 = 0.877 | x1 = 0.971
293.15 K | 19.62 ± 0.24 | 19.11 ± 0.24 | 18.6 ± 0.24 | 18.15 ± 0.24 | 17.71 ± 0.23 | 17.29 ± 0.23 | 16.65 ± 0.23 | 16.08 ± 0.23
298.15 K | 18.98 ± 0.24 | 18.5 ± 0.24 | 17.9 ± 0.24 | 17.35 ± 0.23 | 16.9 ± 0.23 | 16.48 ± 0.23 | 15.85 ± 0.23 | 15.29 ± 0.22
305.15 K | 18.16 ± 0.24 | 17.64 ± 0.23 | 17.13 ± 0.23 | 16.64 ± 0.23 | 16.17 ± 0.23 | 15.74 ± 0.23 | 14.97 ± 0.22 | 14.49 ± 0.22
318.15 K | 16.91 ± 0.23 | 16.24 ± 0.23 | 15.66 ± 0.23 | 15.1 ± 0.22 | 14.57 ± 0.22 | 14.08 ± 0.22 | 13.23 ± 0.22 | 12.7 ± 0.21
323.15 K | 16.33 ± 0.23 | 15.55 ± 0.23 | 14.88 ± 0.22 | 14.4 ± 0.22 | 13.93 ± 0.22 | 13.41 ± 0.22 | 12.6 ± 0.21 | 12.12 ± 0.21

O [water]
[1]
Details | surface tension liquid-gas [mN/m]
293.15 K | 72.84 ± 0.42
298.15 K | 72.03 ± 0.42
303.15 K | 71.24 ± 0.41
308.15 K | 70.44 ± 0.41
313.15 K | 69.61 ± 0.41
323.15 K | 67.96 ± 0.4
